Source: patent US20240390408A1, “METHOD OF TREATING HEPATITIS C VIRUS IN PATIENTS” (Altesa BioSciences, Inc., priority 2023, published 2024)
Read-outs that look alike come from different tables or passages of the source.

Test: Tissue concentrations of Formula I and its metabolites in Göttingen pigs after a single oral or intravenous dose (LC-MS/MS)
Assay type: in vivo
Conditions: for concentration at 2 h / concentration at 12 h / concentration at 3 h / concentration at 24 h: both sexes, Göttingen, pig (minipig)
Procedure: Tissue samples were collected at 3, 12, and 24 hours post-dose (hpd) for the oral dose and 2 and 12 hpd for the intravenous dose, snap-frozen in liquid nitrogen, and stored at −60 to −90° C. until shipment on dry ice for analysis by LC-MS/MS.
Animals were weighed the day prior to dosing to determine the dosing volume.
The compound of Formula I was dissolved in a PEG 400/DI water (60%/40% v/v) vehicle for oral dosing. For IV dosing the compound of Formula I was dissolved in a PEG 400/Cremophor RH 40/Saline (40%/10%/50% v/v) vehicle and passed through a sterile filter. […] Animals were euthanized by euthanasia solution administration under sedation, if necessary (e.g., acepromazine and or/Telazol®), followed by a Testing Facility SOP approved method to ensure death (e.g., exsanguination). Tissues were collected from two animals per sex per timepoint. Tissue samples, including the brain, heart, kidney, liver, lung, spleen, pancreas, bone marrow, duodenum, jejunum, and colon, were collected in duplicate (approximately 50±20 mg each) and placed into two separate reinforced homogenization tubes per organ (one tissue sample per tube). The exact weight (in milligrams) of each sample was recorded. Tissues samples were flash frozen in liquid nitrogen and stored at −60 to −90° C. until shipment on dry ice for analysis by LC-MS/MS.
Mobile phase A consisted of 50 mM ammonium bicarbonate buffer in HPLC grade water pH 9.8 and mobile phase B consisted of pure acetonitrile. […] Mass spectrometry analysis was performed on a QTrap 7500 Mass Spectrometer (Sciex, Framingham, MA, USA) using negative mode electrospray ionization (ESI) in multiple reaction monitoring (MRM) mode. Data analysis was performed using SCIEX OS Software (Sciex, Framingham, MA, USA).
Tissue samples were collected at 3, 12, and 24 hours post-dose for the oral dose and 2 and 12 hour post-dose for the intravenous dose.

[1] = 2-3 hours after IV 25 mg/kg or PO 125 mg/kg dosing
[2] = kidney, single intravenous bolus of Formula I 25 mg/kg, 2 hpd, read-out: Tissue concentration, kidney
[3] = kidney, single oral dose of Formula I 125 mg/kg, 3 hpd, read-out: Tissue concentration, kidney
[4] = liver, single intravenous bolus of Formula I 25 mg/kg, 2 hpd, read-out: Tissue concentration, liver
[5] = liver, single intravenous bolus of Formula I 25 mg/kg, 12 hpd, read-out: Tissue concentration, liver
[6] = liver, single oral dose of Formula I 125 mg/kg, 3 hpd, read-out: Tissue concentration in Göttingen pig liver (Table 7)
[7] = liver, single oral dose of Formula I 125 mg/kg, 3 hpd, read-out: Tissue concentration, liver
[8] = liver, single oral dose of Formula I 125 mg/kg, 12 hpd, read-out: Tissue concentration in Göttingen pig liver (Table 7)
[9] = liver, single oral dose of Formula I 125 mg/kg, 12 hpd, read-out: Tissue concentration, liver
[10] = lung, single intravenous bolus of Formula I 25 mg/kg, 2 hpd, read-out: Tissue concentration, lung
[11] = lung, single intravenous bolus of Formula I 25 mg/kg, 12 hpd, read-out: Tissue concentration, lung
[12] = lung, single oral dose of Formula I 125 mg/kg, 3 hpd, read-out: Tissue concentration, lung
[13] = spleen, single intravenous bolus of Formula I 25 mg/kg, 2 hpd, read-out: Tissue concentration, spleen
[14] = spleen, single intravenous bolus of Formula I 25 mg/kg, 12 hpd, read-out: Tissue concentration, spleen
[15] = liver, single oral dose of Formula I 125 mg/kg, 24 hpd

C[C@@]1(O)[C@H](O)[C@@H](CO)O[C@H]1n1ccc(=O)[nH]c1=S [Formula VI]
Brain level, additional fold lower than heart, lung and spleen [1]: approximately 10 fold
Kidney and liver levels relative to heart, lung and spleen (fold higher) [1]: approximately 10 fold
Additional decrease of levels in all organs (24 hpd after oral dose, all organs): 2-3 fold
Decrease of levels in all organs (12 hours post oral dose, all organs): 4-6 fold
concentration at 2 h (brain, single intravenous bolus of Formula I 25 mg/kg, 2 hpd, read-out: Tissue concentration, brain): 140 ± 56.7 ng/g
concentration at 12 h (brain, single intravenous bolus of Formula I 25 mg/kg, 12 hpd, read-out: Tissue concentration, brain): 6.4 ± 12.8 ng/g
concentration at 3 h (brain, single oral dose of Formula I 125 mg/kg, 3 hpd, read-out: Tissue concentration, brain): 192 ± 77.9 ng/g
concentration at 12 h (brain, single oral dose of Formula I 125 mg/kg, 12 hpd, read-out: Tissue concentration, brain): 111 ± 38.6 ng/g
concentration at 24 h (brain, single oral dose of Formula I 125 mg/kg, 24 hpd, read-out: Tissue concentration, brain): 37.9 ± 9.15 ng/g
concentration at 2 h (heart, single intravenous bolus of Formula I 25 mg/kg, 2 hpd, read-out: Tissue concentration, heart): 1990 ± 195 ng/g
concentration at 12 h (heart, single intravenous bolus of Formula I 25 mg/kg, 12 hpd, read-out: Tissue concentration, heart): 57.3 ± 23.3 ng/g
concentration at 3 h (heart, single oral dose of Formula I 125 mg/kg, 3 hpd, read-out: Tissue concentration, heart): 3370 ± 645 ng/g
concentration at 12 h (heart, single oral dose of Formula I 125 mg/kg, 12 hpd, read-out: Tissue concentration, heart): 533 ± 213 ng/g
concentration at 24 h (heart, single oral dose of Formula I 125 mg/kg, 24 hpd, read-out: Tissue concentration, heart): 240 ± 27.7 ng/g
concentration at 2 h [2]: 25400 ± 5560 ng/g
concentration at 12 h (kidney, single intravenous bolus of Formula I 25 mg/kg, 12 hpd, read-out: Tissue concentration, kidney): 701 ± 48.7 ng/g
concentration at 3 h [3]: 29400 ± 2170 ng/g
concentration at 12 h (kidney, single oral dose of Formula I 125 mg/kg, 12 hpd, read-out: Tissue concentration, kidney): 7420 ± 1440 ng/g
concentration at 24 h (kidney, single oral dose of Formula I 125 mg/kg, 24 hpd, read-out: Tissue concentration, kidney): 2740 ± 503 ng/g
concentration at 2 h [4]: 7960 ± 1530 ng/g
concentration at 12 h [5]: 201 ± 126 ng/g
concentration at 3 h [6]: 66.3 ± 23.7 µM
concentration at 3 h [7]: 18200 ± 6500 ng/g
concentration at 12 h [8]: 9.46 ± 5.56 µM
concentration at 12 h [9]: 2600 ± 1530 ng/g
concentration at 24 h (liver, single oral dose of Formula I 125 mg/kg, 24 hpd, read-out: Tissue concentration in Göttingen pig liver (Table 7)): 4.08 ± 1.84 µM
concentration at 24 h (liver, single oral dose of Formula I 125 mg/kg, 24 hpd, read-out: Tissue concentration, liver): 1120 ± 505 ng/g
concentration at 2 h [10]: 2330 ± 130 ng/g
concentration at 12 h [11]: 93.9 ± 18.8 ng/g
concentration at 3 h [12]: 3580 ± 1060 ng/g
concentration at 12 h (lung, single oral dose of Formula I 125 mg/kg, 12 hpd, read-out: Tissue concentration, lung): 536 ± 101 ng/g
concentration at 24 h (lung, single oral dose of Formula I 125 mg/kg, 24 hpd, read-out: Tissue concentration, lung): 242 ± 85.7 ng/g
concentration at 2 h [13]: 1620 ± 181 ng/g
concentration at 12 h [14]: 49.2 ± 9.7 ng/g
concentration at 3 h (spleen, single oral dose of Formula I 125 mg/kg, 3 hpd, read-out: Tissue concentration, spleen): 3010 ± 433 ng/g
concentration at 12 h (spleen, single oral dose of Formula I 125 mg/kg, 12 hpd, read-out: Tissue concentration, spleen): 539 ± 195 ng/g
concentration at 24 h (spleen, single oral dose of Formula I 125 mg/kg, 24 hpd, read-out: Tissue concentration, spleen): 292 ± 139 ng/g
12 hpd levels after IV dosing, fold lower than corresponding levels after PO dosing (each organ, 12 hpd, IV 25 mg/kg vs PO 125 mg/kg): approximately 10 fold

CC1(O)[C@@H](O)[C@@H](COP(=O)(O)OP(=O)(O)OP(=O)(O)O)O[C@H]1n1ccc(=O)[nH]c1=S (stereo partly drawn) [Formula V]
concentration at 12 h (125 mg/kg, liver, 12 hpd after oral dosing with Formula I, assumed tissue density of 1 g/mL, read-out: Concentration present in the liver): ~1 µM
concentration at 12 h (lung, 25 mg/kg, lungs, 12 hrs post-dose after IV dosing with Formula I, read-out: Concentration maintained in lungs): ~1 µM
concentration at 2 h [2]: 4410 ± 2040 ng/g
concentration at 3 h [3]: 613 ± 280 ng/g
concentration at 2 h [4]: 2610 ± 892 ng/g
concentration at 12 h [5]: 62.8 ± 126 ng/g
concentration at 3 h [6]: 12.9 ± 12.3 µM
concentration at 3 h [7]: 6670 ± 6310 ng/g
concentration at 12 h [8]: 0.88 ± 1.05 µM
concentration at 12 h [9]: 452 ± 541 ng/g
concentration at 2 h [10]: 3620 ± 2770 ng/g
concentration at 12 h [11]: 455 ± 263 ng/g
concentration at 3 h [12]: 170 ± 29.5 ng/g
concentration at 2 h [13]: 318 ± 181 ng/g
concentration at 12 h [14]: 47.5 ± 95 ng/g
Tissue concentration, brain (brain, single intravenous bolus of Formula I 25 mg/kg, 2 hpd): BQL
Tissue concentration, brain (brain, single intravenous bolus of Formula I 25 mg/kg, 12 hpd): BQL
Tissue concentration, brain (brain, single oral dose of Formula I 125 mg/kg, 3 hpd): not detected and BQL
Tissue concentration, brain (brain, single oral dose of Formula I 125 mg/kg, 12 hpd): BQL
Tissue concentration, brain (brain, single oral dose of Formula I 125 mg/kg, 24 hpd): BQL
Tissue concentration, heart (heart, single intravenous bolus of Formula I 25 mg/kg, 2 hpd): 405 ± 149 ng/g
Tissue concentration, heart (heart, single intravenous bolus of Formula I 25 mg/kg, 12 hpd): 140 ± 32.0 ng/g
Tissue concentration, heart (heart, single oral dose of Formula I 125 mg/kg, 3 hpd): 64.3 ± 75.4 ng/g
Tissue concentration, heart (heart, single oral dose of Formula I 125 mg/kg, 12 hpd): BQL
Tissue concentration, heart (heart, single oral dose of Formula I 125 mg/kg, 24 hpd): BQL
Tissue concentration, kidney (kidney, single intravenous bolus of Formula I 25 mg/kg, 2 hpd): 4410 ± 2040 ng/g
Tissue concentration, kidney (kidney, single intravenous bolus of Formula I 25 mg/kg, 12 hpd): not detectable and BQL
Tissue concentration, kidney (kidney, single oral dose of Formula I 125 mg/kg, 3 hpd): 613 ± 280 ng/g
Tissue concentration, kidney (kidney, single oral dose of Formula I 125 mg/kg, 12 hpd): BQL
Tissue concentration, kidney (kidney, single oral dose of Formula I 125 mg/kg, 24 hpd): BQL
Tissue concentration, liver (liver, single intravenous bolus of Formula I 25 mg/kg, 2 hpd): 2610 ± 892 ng/g
Tissue concentration, liver (liver, single intravenous bolus of Formula I 25 mg/kg, 12 hpd): 62.8 ± 126 ng/g
Tissue concentration, liver (liver, single oral dose of Formula I 125 mg/kg, 3 hpd): 6670 ± 6310 ng/g
Tissue concentration, liver (liver, single oral dose of Formula I 125 mg/kg, 12 hpd): 452 ± 541 ng/g
Tissue concentration in Göttingen pig liver (Table 7) [15]: BQL
Tissue concentration, liver [15]: BQL
Tissue concentration, lung (lung, single intravenous bolus of Formula I 25 mg/kg, 2 hpd): 3620 ± 2770 ng/g
Tissue concentration, lung (lung, single intravenous bolus of Formula I 25 mg/kg, 12 hpd): 455 ± 263 ng/g
Tissue concentration, lung (lung, single oral dose of Formula I 125 mg/kg, 3 hpd): 170 ± 29.5 ng/g
Tissue concentration, lung (lung, single oral dose of Formula I 125 mg/kg, 12 hpd): BQL
Tissue concentration, lung (lung, single oral dose of Formula I 125 mg/kg, 24 hpd): BQL
Tissue concentration, spleen (spleen, single intravenous bolus of Formula I 25 mg/kg, 2 hpd): 318 ± 181 ng/g
Tissue concentration, spleen (spleen, single intravenous bolus of Formula I 25 mg/kg, 12 hpd): 47.5 ± 95.0 ng/g
Tissue concentration, spleen (spleen, single oral dose of Formula I 125 mg/kg, 3 hpd): not detected and BQL
Tissue concentration, spleen (spleen, single oral dose of Formula I 125 mg/kg, 12 hpd): BQL
Tissue concentration, spleen (spleen, single oral dose of Formula I 125 mg/kg, 24 hpd): BQL
